Results reported in patent US20240368174A1, “Antiviral Heterocyclic Compounds” (Enanta Pharmaceuticals, Inc., priority 2023, published 2024).

Legend:
[1] = test system: genotype A, “Long” strain RSV; test: RSV-A assay (CPE, ATPlite readout in Hep-2 cells); assay type: cell-based, Human respiratory syncytial virus; conditions: human respiratory syncytial virus, activity class
Procedure, shortened: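 In this cytopathic-effect protection format, infected Hep-2 cultures (MOI 0.1) are exposed to compound for 5 days. Surviving cell ATP is quantified with ATPlite, and EC50 is determined.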

[2] = test system: HMPV clinical isolate A2 strain TN 94-49; test: HMPV antiviral assay, Method 2 (LLC-MK2 cells with CP-100-356, ATP-Lite); assay type: cell-based; conditions: human metapneumovirus; hMPV A2 TN/94-49, LLC-MK2 cells with CP-100-356, Method 2
Procedure, shortened: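 EC50 comes from a four-parameter fit of percent cell viability (ATP-Lite, normalized to virus-only and cell-only wells) after 7 days at 37 °C. Infection used HMPV A2 TN 94-49 at MOI 0.16 in LLC-MK2 cells, with 2 μM P-gp inhibitor CP-100-356 and 2 μg/mL TPCK-trypsin final; dose range 200 nM top, 2.5-fold, 10 points, duplicate.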

EC50 [1] [nM] | EC50 [2] [nM] | Compound
< 200 | < 200 | COc1cc(C(=O)NC[C@](O)(c2cc3c(c(-c4cc(C(F)(F)F)ncc4F)n2)OC[C@]3(C)C(N)=O)C2CC2)cc2cn(C3CC3)nc12 [Example 347]
< 200 | < 200 | COc1cc(C(=O)NC[C@](O)(c2cc3c(c(-c4cc(C(F)(F)F)ncc4F)n2)OC[C@]3(C)C(N)=O)C2CC2)cc2cn(C3(F)CC3)nc12 [Example 348]
< 200 | < 200 | COc1cc(C(=O)NC[C@](O)(c2cc3c(c(-c4cc(C(F)(F)F)ncc4F)n2)OC[C@]3(C)C(N)=O)C2CC2)cc2oc(C3CC3)nc12 [Example 349]
< 200 | > 200 | COc1cc(C(=O)N(C)C[C@](O)(c2cc3c(c(-c4ccc(F)c(Cl)c4)n2)OC[C@]3(C(N)=O)C(F)F)C2CC2)cc2cn(C3CC3)nc12 [Example 350]
> 200 | > 200 | COc1cc(C(=O)N(C)C[C@](O)(c2cc3c(c(-c4ccc(F)c(Cl)c4)n2)OC[C@@]3(C(N)=O)C(F)F)C2CC2)cc2cn(C3CC3)nc12 [Example 351]
< 200 | < 200 | COc1cc(C(=O)NC[C@](O)(c2cc3c(c(-c4cc(C(F)(F)F)ncc4F)n2)OC[C@]3(C)C(N)=O)C2CC2)cc2cn(C(F)F)nc12 [Example 352]
< 200 | < 200 | COc1cc(C(=O)NC[C@@](O)(c2cccc(F)c2)c2cc3c(c(-c4cc(F)ncc4Cl)n2)OC[C@]3(C)C(N)=O)cc2cn(C3CC3)nc12 [Example 376]
< 200 | < 200 | COc1cc(C(=O)NC[C@@](O)(c2cccc(F)c2)c2cc3c(c(-c4ccnc(C)c4Cl)n2)OC[C@]3(C)C(N)=O)cc2cn(C3CC3)nc12 [Example 378]
< 200 | > 200 | COc1cc(C(=O)NCC(O)(c2cccc(F)c2)c2cc3c(c(-c4cc(C(F)(F)F)ncc4Cl)n2)OC[C@]3(C)C(N)=O)cc2cn(C3CC3)nc12 (stereo partly drawn) [Example 379]
< 200 | < 200 | COc1cc(C(=O)NC[C@](O)(c2cc3c(c(-c4ccnc(F)c4Cl)n2)OC[C@]3(C)C(N)=O)C(F)(F)F)cc2cn(C(F)F)nc12 [Example 380]
< 200 | < 200 | COc1cc(C(=O)NC[C@](O)(c2cc3c(c(-c4cc(F)nc(F)c4)n2)OC[C@]3(C)C(N)=O)C2CC2)cc2cn(C3CC3)nc12 [Example 390]
< 200 | < 200 | COc1cc(C(=O)NC[C@@](O)(c2cccc(F)c2)c2cc3c(c(-c4ccnc(F)c4Cl)n2)OC[C@]3(C)C(N)=O)cc2cn(C3(F)CC3)nc12 [Example 401]
> 200 | > 200 | COc1cc(C(=O)NC[C@](O)(c2cccc(F)c2)c2cc3c(c(-c4ccnc(F)c4Cl)n2)OC[C@]3(C)C(N)=O)cc2cn(C3(F)CC3)nc12 [Example 402]
< 200 | > 200 | COc1cc(C(=O)NC[C@@](O)(c2cccc(F)c2)c2cc3c(c(-c4cc(F)cnc4Cl)n2)OC[C@]3(C)C(N)=O)cc2cn(C3(F)CC3)nc12 [Example 403]
> 200 | > 200 | COc1cc(C(=O)NC[C@](O)(c2cccc(F)c2)c2cc3c(c(-c4cc(F)cnc4Cl)n2)OC[C@]3(C)C(N)=O)cc2cn(C3(F)CC3)nc12 [Example 404]
< 200 | < 200 | COc1cc(C(=O)NC[C@@](O)(c2cccc(F)c2)c2cc3c(c(-c4ccnc(F)c4Cl)n2)OC[C@]3(C)C(N)=O)cc2cn(C3CC3)nc12 [Example 407]
< 200 | < 200 | COc1cc(C(=O)NC[C@@](O)(c2cccc(F)c2)c2cc3c(c(-c4cc(C(F)(F)F)ncc4F)n2)OC[C@]3(C)C(N)=O)cc2cn(C3CC3)nc12 [Example 408]
< 200 | < 200 | COc1cc(C(=O)NC[C@@](O)(c2cccc(F)c2)c2cc3c(c(-c4cc(Cl)ncc4F)n2)OC[C@]3(C)C(N)=O)cc2cn(C3CC3)nc12 [Example 410]
< 200 | < 200 | COc1cc(C(=O)NC[C@](O)(c2cc3c(c(-c4cc(C)ncc4F)n2)OC[C@]3(C)C(N)=O)C2CC2)cc2cn(C3CC3)nc12 [Example 412]
< 200 | < 200 | COc1cc(C(=O)NC[C@](O)(c2cc3c(c(-c4ccsc4)n2)OC[C@]3(C)C(N)=O)C2CC2)cc2cn(C3CC3)nc12 [Example 413]
< 200 | < 200 | COc1cc(C(=O)NC[C@](O)(c2cc3c(c(-c4cscc4C)n2)OC[C@]3(C)C(N)=O)C2CC2)cc2cn(C3CC3)nc12 [Example 414]
< 200 | < 200 | COc1cc(C(=O)NC[C@](O)(c2cc3c(c(-c4ccsc4Cl)n2)OC[C@]3(C)C(N)=O)C2CC2)cc2cn(C3CC3)nc12 [Example 415]
< 200 | < 200 | COc1cc(C(=O)NC[C@](O)(c2cc3c(c(-c4csc(Cl)c4)n2)OC[C@]3(C)C(N)=O)C2CC2)cc2cn(C3CC3)nc12 [Example 416]

EC50 [1] [nM] | EC50 [2] [nM] | Compound
< 200 | < 200 | COc1cc(C(=O)NC[C@](O)(c2cc3c(c(-c4cc(Cl)ncc4C)n2)OC[C@]3(C)C(N)=O)C2CC2)cc2cn(C3CC3)nc12 [Example 417]
< 200 | < 200 | COc1cc(C(=O)NC[C@](O)(c2cc3c(c(-n4ccc5ccccc54)n2)OC[C@]3(C)C(N)=O)C2CC2)cc2cn(C3CC3)nc12 [Example 443]
< 200 | > 200 | C#CC(O)(CNC(=O)c1cc(OC)c2nn(C3CC3)cc2c1)c1cc2c(c(-c3cc(Cl)c(F)cc3F)n1)OC[C@]2(C)C(N)=O (stereo partly drawn) [Example 473]
< 200 | < 200 | COc1cc(C(=O)NC[C@](O)(c2cc3c(c(-c4cc(Cl)c(F)cc4F)n2)OC[C@]3(C)C(N)=O)C(C)C)cc2cn(C3CC3)nc12 [Example 476]
< 200 | > 200 | COc1cc(C(=O)NC[C@@](O)(C#CC(C)(C)O)c2cc3c(c(-c4cc(Cl)c(F)cc4F)n2)OC[C@]3(C)C(N)=O)cc2cn(C3CC3)nc12 [Example 477]
> 200 | > 200 | COc1cc(C(=O)NC[C@@](O)(CC2CC2)c2cc3c(c(-c4cc(Cl)c(F)cc4F)n2)OC[C@]3(C)C(N)=O)cc2cn(C3CC3)nc12 [Example 517]
< 200 | < 200 | COC1=CC(C(=O)NC[C@](O)(c2cc3c(c(-c4ccnc(C)c4Cl)n2)OC[C@]3(C)C(N)=O)C2(F)CC2)=CC2OC(C3CC3)=NC12 (stereo partly drawn) [Example 526]
< 200 | > 200 | COc1cc(C(=O)NC[C@](O)(c2cc3c(c(-c4ccnc(C)c4Cl)n2)OC[C@]3(C)C(N)=O)C2(F)CC2)cc2cn(C(F)F)nc12 [Example 527]
< 200 | < 200 | COc1cc(C(=O)NC[C@](O)(c2cc3c(c(-c4ccnc(C)c4Cl)n2)OC[C@]3(C)C(N)=O)C2(F)CC2)cc2cn(C3CC3)nc12 [Example 531]
< 200 | < 200 | COc1cc(C(=O)NC[C@](O)(c2cc3c(c(-c4ccnc(C(F)(F)F)c4Cl)n2)OC[C@]3(C)C(N)=O)C(F)(F)F)cc2cn(C3(F)CC3)nc12 [Example 534]
< 200 | < 200 | COc1cc(C(=O)NC[C@](O)(c2cc3c(c(-c4ccnc(C(F)(F)F)c4Cl)n2)OC[C@]3(C)C(N)=O)C(F)(F)F)cc2oc(C3CC3)nc12 [Example 536]
< 200 | < 200 | COc1cc(C(=O)NC[C@](O)(c2cc3c(c(-c4ccnc(C(F)F)c4Cl)n2)OC[C@]3(C)C(N)=O)C2CC2)cc2oc(C(F)F)nc12 [Example 542]
< 200 | < 200 | COc1nccc(-c2nc([C@@](O)(CNC(=O)c3cc(OC)c4nn(C5(F)CC5)cc4c3)C(F)(F)F)cc3c2OC[C@]3(C)C(N)=O)c1Cl [Example 543]
< 200 | < 200 | COc1cc(C(=O)NC[C@](O)(c2cc3c(c(-c4ccnc(C(F)F)c4Cl)n2)OC[C@]3(C)C(N)=O)C(F)(F)F)cc2cn(C3(F)CC3)nc12 [Example 548]
< 200 | < 200 | COc1cc(C(=O)NC[C@](O)(c2cc3c(c(-c4ccnc(C(F)F)c4Cl)n2)OC[C@]3(C)C(N)=O)C(F)(F)F)cc2oc(C3CC3)nc12 [Example 550]
< 200 | < 200 | COc1cc(C(=O)NC[C@](O)(c2cc3c(c(-c4ccnc(C(F)(F)F)c4Cl)n2)OC[C@]3(C)C(N)=O)C2CC2)cc2cc(C3CC3)nn12 [Example 579]
< 200 | < 200 | COc1cc(C(=O)NC[C@](O)(c2cc3c(c(-c4ccnc(C(F)(F)F)c4Cl)n2)OC[C@]3(C)C(N)=O)C2CC2)cc2oc(C(F)F)nc12 [Example 581]
< 200 | < 200 | COc1nccc(-c2nc([C@@](O)(CNC(=O)c3cc(OC)n4nc(C5CC5)cc4c3)C3CC3)cc3c2OC[C@]3(C)C(N)=O)c1Cl [Example 582]
< 200 | < 200 | COc1nccc(-c2nc([C@@](O)(CNC(=O)c3cc(OC4CC4)c4nn(C5CC5)cc4c3)C3CC3)cc3c2OC[C@]3(C)C(N)=O)c1Cl [Example 585]
< 200 | < 200 | COc1cc(C(=O)NC[C@](O)(c2cc3c(c(-c4cccc(F)c4Cl)n2)OC[C@]3(C)C(N)=O)C(F)(F)F)cc2cn(C3(F)CC3)nc12 [Example 611]
< 200 | < 200 | COc1cc(C(=O)NC[C@](O)(c2cc3c(c(-n4ncc5c(F)cccc54)n2)OC[C@]3(C)C(N)=O)C2CC2)cc2cn(C3(F)CC3)nc12 [Example 613]
< 200 | < 200 | COc1cc(C(=O)NC[C@](O)(c2cc3c(c(-c4cccc(F)c4Cl)n2)OC[C@]3(C)C(N)=O)C2CC2)cc2cn(C3(F)CC3)nc12 [Example 615]
